Square brackets hold non-standard residues; d marks the D form. Peptide text beside a SMILES is read from it. * marks the point of attachment. ξ: configuration not given here. Boc = CC(C)(C)OC(=O)*; ξV = CC(C)C(N)C(=O)O; GABA = NCCCC(=O)O; ξA = CC(N)C(=O)O
tested on: MPro; test: not given; details: compiled from peer-reviewed sources (287 compounds) ref the 18 original articles; cited from earlier work

Compound | Class (MPro activity class)
O=c1[nH]cc(-c2cc(-c3cc(Cl)cc(OCc4c(F)cccc4F)c3)c(=O)n(-c3cccnc3)c2)c(=O)[nH]1 [compound 20] | 1 (Compounds with IC50 < 10 µM or with a percentage of enzyme inhibition >50% at 10 µM were labelled as ACTIVE)
O=c1[nH]cc(-c2cc(-c3cc(Cl)cc(OCc4ccccc4Cl)c3)c(=O)n(-c3cccnc3)c2)c(=O)[nH]1 [compound 21] | 1 (Compounds with IC50 < 10 µM or with a percentage of enzyme inhibition >50% at 10 µM were labelled as ACTIVE)
O=c1[nH]cc(-c2cc(-c3cc(Cl)cc(OCc4ccc(F)cc4Cl)c3)c(=O)n(-c3cccnc3)c2)c(=O)[nH]1 [compound 22] | 1 (Compounds with IC50 < 10 µM or with a percentage of enzyme inhibition >50% at 10 µM were labelled as ACTIVE)
CC(C)C[C@H](NC(=O)[C@@H](NC(=O)c1cccc(-c2ccccc2)n1)[C@@H](C)O)B(O)O [delanzomib] | 0 (compounds with IC50 > 20 μM, percentage inhibition <80% at 20 µM or 50 μM, or percentage enzyme inhibition <50% at 10 µM were labelled as INACTIVE)
Nc1ccn([C@H]2C[C@H](O)[C@@H](COP(=O)(O)OP(=O)(O)OP(=O)(O)OP(=O)(O)OC[C@H]3O[C@@H](n4ccc(=O)[nH]c4=O)[C@H](O)[C@@H]3O)O2)c(=O)n1 [denufosol (DB04983), denufosol] | 0 (compounds with IC50 > 20 μM, percentage inhibition <80% at 20 µM or 50 μM, or percentage enzyme inhibition <50% at 10 µM were labelled as INACTIVE)
C=C(CC)C(=O)c1ccc(OCC(=O)O)c(Cl)c1Cl [ethacrynic acid] | 0 (compounds with IC50 > 20 μM, percentage inhibition <80% at 20 µM or 50 μM, or percentage enzyme inhibition <50% at 10 µM were labelled as INACTIVE)
C[C@H]1C[C@@H]2[C@H]([C@@H](O)C[C@@]3(C)[C@H]2CC[C@]3(O)C(=O)CO)[C@@]2(C)C=CC(=O)C=C12 [methylprednisolone] | 0 (compounds with IC50 > 20 μM, percentage inhibition <80% at 20 µM or 50 μM, or percentage enzyme inhibition <50% at 10 µM were labelled as INACTIVE)
Carmofur | 1 (Compounds with IC50 < 10 µM or with a percentage of enzyme inhibition >50% at 10 µM were labelled as ACTIVE)
Disulfiram | 1 (Compounds with IC50 < 10 µM or with a percentage of enzyme inhibition >50% at 10 µM were labelled as ACTIVE)
Forsythoside B | 1 (Compounds with IC50 < 10 µM or with a percentage of enzyme inhibition >50% at 10 µM were labelled as ACTIVE)
MLN9708 | 0 (compounds with IC50 > 20 μM, percentage inhibition <80% at 20 µM or 50 μM, or percentage enzyme inhibition <50% at 10 µM were labelled as INACTIVE)
Maraviroc | 0 (compounds with IC50 > 20 μM, percentage inhibition <80% at 20 µM or 50 μM, or percentage enzyme inhibition <50% at 10 µM were labelled as INACTIVE)
Phillyrin | 0 (compounds with IC50 > 20 μM, percentage inhibition <80% at 20 µM or 50 μM, or percentage enzyme inhibition <50% at 10 µM were labelled as INACTIVE)
TERIFLUNOMIDE | 0 (compounds with IC50 > 20 μM, percentage inhibition <80% at 20 µM or 50 μM, or percentage enzyme inhibition <50% at 10 µM were labelled as INACTIVE)
cangrelor | 0 (compounds with IC50 > 20 μM, percentage inhibition <80% at 20 µM or 50 μM, or percentage enzyme inhibition <50% at 10 µM were labelled as INACTIVE)

molecular target: SARS-CoV-2 MPro (Severe acute respiratory syndrome coronavirus 2, UniProt P0DTD1); test: MPro activity assay (de-quenching of Edans fluorescence on cleavage of a Dabcyl/Edans peptide); format: biochemical; details: 10 μM or 25 μM compound

Compound | % activity MPro at 10 μM or 25 μM
Oc1cc(O)c2c(c1)O[C@H](c1ccc(O)c(O)c1)[C@H](O)C2 [4b, epicatechin] | 88.7 ± 0.6%

same assay, conditions: 25 μM where stated

Compound | activity against MPro (in words)
Oc1cc(O)c2c(c1)O[C@H](c1ccc(O)c(O)c1)[C@H](O)C2 [4b, epicatechin] | negligible activity
O=C(O[C@@H]1Cc2c(O)cc(O)cc2O[C@@H]1c1ccc(O)c(O)c1)c1cc(O)c(O)c(O)c1 [5b, epicatechin gallate] | full inhibition

same assay, conditions: 60 min pre-incubation, 5 μM substrate

Compound | IC50
COc1ccc(C(=O)C2=C(O)C(=O)N(c3nc4ccc(Cl)cc4s3)C2c2ccc(F)cc2)cc1OC (stereo not drawn) [1a] | < 25 µM
COC(=O)[C@@H](Cc1ccccc1)NC(=O)C(C)NC(=O)[C@@H](NC(=O)C(NC(=O)CCCNC(=O)OC(C)(C)C)C(C)C)C(C)C (stereo partly drawn) [2a] ({Boc-GABA}-[ξV]V[ξA][dF]-OMe) | 32.1 ± 1.4 µM
O=C(/C=C/c1ccc2ccccc2c1)c1ccccc1O [25d] | 0.5 µM

same assay, conditions: in-house acquired data, internal screening under standardized conditions (128 compounds)

Compound | Class (MPro activity class)
COc1ccc(C2C(C(=O)c3ccc4c(c3)OCCO4)=C(O)C(=O)N2c2nc3ccc(C)cc3s2)cc1 (stereo not drawn) [AD81] | 0 (compounds with IC50 > 20 μM, percentage inhibition <80% at 20 µM or 50 μM, or percentage enzyme inhibition <50% at 10 µM were labelled as INACTIVE)
Cc1ccc2nc(N3C(=O)C(O)=C(C(=O)c4ccc5c(c4)OCCO5)C3c3ccc(O)cc3)sc2c1 (stereo not drawn) [AD82] | 0 (compounds with IC50 > 20 μM, percentage inhibition <80% at 20 µM or 50 μM, or percentage enzyme inhibition <50% at 10 µM were labelled as INACTIVE)
O=C(C1=C(O)C(=O)N(c2nc3ccc(Cl)cc3s2)C1c1ccc(O)cc1)c1ccc2c(c1)OCCO2 (stereo not drawn) [AD83] | 0 (compounds with IC50 > 20 μM, percentage inhibition <80% at 20 µM or 50 μM, or percentage enzyme inhibition <50% at 10 µM were labelled as INACTIVE)
COc1ccc(C2C(C(=O)c3ccc4c(c3)OCCO4)=C(O)C(=O)N2c2nc3ccc(Cl)cc3s2)cc1 (stereo not drawn) [AD84] | 0 (compounds with IC50 > 20 μM, percentage inhibition <80% at 20 µM or 50 μM, or percentage enzyme inhibition <50% at 10 µM were labelled as INACTIVE)
CCCN1C(=O)C(O)=C(C(=O)c2ccccc2)C1c1ccccc1 (stereo not drawn) [AD85] | 0 (compounds with IC50 > 20 μM, percentage inhibition <80% at 20 µM or 50 μM, or percentage enzyme inhibition <50% at 10 µM were labelled as INACTIVE)
COc1ccc(C2C(C(=O)c3ccc4c(c3)OCCO4)=C(O)C(=O)N2c2nc3ccc(OC)cc3s2)cc1 (stereo not drawn) [ADKPN160] | 0 (compounds with IC50 > 20 μM, percentage inhibition <80% at 20 µM or 50 μM, or percentage enzyme inhibition <50% at 10 µM were labelled as INACTIVE)
O=C(C1=C(O)C(=O)N(c2nc3ccccc3s2)C1c1ccc(F)cc1)c1ccc2c(c1)OCCO2 (stereo not drawn) [ADKPN161] | 0 (compounds with IC50 > 20 μM, percentage inhibition <80% at 20 µM or 50 μM, or percentage enzyme inhibition <50% at 10 µM were labelled as INACTIVE)

same assay, conditions: read-out: MPro activity (%)

Compound | activity at 25 µM
COc1ccc(C(=O)C2=C(O)C(=O)N(c3nc4ccc(Cl)cc4s3)C2c2ccc(F)cc2)cc1OC (stereo not drawn) [1a] | 34.8 ± 3.4%
[O-][n+]1onc2cc(Cl)cc(Cl)c21 [1d] | 89.3 ± 1.9%
CC(C)(C)OC(=O)NC1CCCN(CC(=O)NC(Cc2ccccc2)C(=O)Nc2nc3cc(Sc4ccccc4)ccc3[nH]2)C1=O (stereo not drawn) [3a] | 64.9 ± 11.6%
Cc1c(C(=O)NCc2ccccc2)[n+]([O-])c2ccccc2[n+]1[O-] [4a] | 59.4 ± 3.6%
O=S(=O)(O)c1ccc(/C=N/N=c2\scc(-c3cs/c(=N\N=C\c4ccc(S(=O)(=O)O)o4)n3-c3ccccc3)n2-c2ccccc2)o1 [5a] | 65.6 ± 10.9%
O=C(O[C@@H]1Cc2c(O)cc(O)cc2O[C@@H]1c1ccc(O)c(O)c1)c1cc(O)c(O)c(O)c1 [5b, epicatechin gallate] | 0%
CC(=O)OC[C@H]1O[C@@H](Sc2ccccc2)[C@H](OC(C)=O)[C@@H](OC(C)=O)C1OC(C)=O (stereo partly drawn) [6a] | 60.9 ± 1.5%
COc1ccc2no[n+]([O-])c2c1 [6d] | 85.8 ± 3.5%
O=C(O)c1ccc2no[n+]([O-])c2c1 [7d] | 66 ± 4%
O=C(OC[C@H]1O[C@@H](OC(=O)c2ccccc2)[C@H](OC(=O)c2ccccc2)[C@@H](OC(=O)c2ccccc2)[C@@H]1OC(=O)c1ccccc1)c1ccccc1 [8a] | 67 ± 2.5%
[O-][n+]1onc2ccc(/C=C/[S+]([O-])c3ccccc3)cc21 (stereo not drawn) [8d] | 91.6 ± 0.1%
[O-][n+]1onc2ccc(/C=C\Sc3ccc(F)cc3)cc21 [9d] | 81.4 ± 21.5%
[O-][n+]1onc2ccc(/C=C/[S+]([O-])c3ccc(F)cc3)cc21 (stereo not drawn) [10d] | 55.6 ± 3.4%
Cc1ccc([S+]([O-])/C=C/c2ccc3no[n+]([O-])c3c2)cc1 (stereo not drawn) [11d] | 70.6 ± 0.8%
[O-][n+]1onc2ccc(/C=C\[S+]([O-])c3ccccc3)cc21 (stereo not drawn) [12d] | 56.2 ± 0.5%
O=S(=O)(/C=C\c1ccc2no[n+]([O-])c2c1)c1ccc(Cl)cc1 [13d] | 58 ± 0.3%
Cc1ccc([S+]([O-])/C=C\c2ccc3no[n+]([O-])c3c2)cc1 (stereo not drawn) [14d] | 73.8 ± 4.4%
[O-][n+]1onc2ccc(/C=C\c3ccc4c(c3)OCO4)cc21 [15d] | 67.4 ± 1.8%
[O-][S+](/C=C/c1ccc2nonc2c1)c1ccccc1 (stereo not drawn) [16d] | 71.9 ± 11%
O=[N+]([O-])c1ccc(CS(=O)(=O)/C=C/c2ccc3nonc3c2)cc1 [17d] | 116 ± 15%
O=S(=O)(/C=C\c1ccc2no[n+]([O-])c2c1)c1ccccc1 [18d] | 71.2 ± 0.9%
Cc1ccc(S(=O)(=O)/C=C\c2ccc3no[n+]([O-])c3c2)cc1 [19d] | 98.6 ± 2.4%
Cc1ccc(S(=O)(=O)/C=C/c2ccc3no[n+]([O-])c3c2)cc1 [20d] | 62.6 ± 4.9%
O=C(c1ccc2no[n+]([O-])c2c1)N1CCOCC1 [21d] | 78.7 ± 3.2%

same assay, conditions: read-out: MPro inhibition

Compound | inhibition at 25 µM
O=C(/C=C/c1ccc2ccccc2c1)c1ccc2ccccc2c1O [26d] | 45%
COc1ccc(S(=O)(=O)Nc2nc3cc(Cl)c(Oc4cccc(Cl)c4Cl)cc3[nH]2)cc1 [30d] | 42%
O=S(=O)(Nc1nc2cc(Cl)c(Oc3cccc(Cl)c3Cl)cc2[nH]1)c1ccc(Br)cc1 [32d] | 25%
O=C1/C(=C/C=C/c2cccs2)CC/C1=C\C=C\c1cccs1 [37d] | 20 to 40%
[O-][n+]1cc[n+]([O-])c2ccccc21 [38d] | 20 to 40%
